# Source: patent publication US12714678B2, “Peptides and methods of treating sepsis, atherosclerosis, thrombosis, stroke, heart attack and inflammation” (THE BOARD OF TRUSTEES OF THE UNIVERSITY OF ILLINOIS, priority 2019, dated 2026)
# Where a SMILES comes first, the peptide text is derived from it. Where no end group is shown, it is not given here. The star is where a group is joined. Myristoyl = CCCCCCCCCCCCCC(=O)*
# Experiments:
# C57BL/6 mice [1] = experiment: Cecal ligation and puncture (CLP) sepsis model; format: in vivo, mouse; conditions: bolus 2.5 μmol/kg then 1.25 μmol/kg/hour i.v.
# Procedure: CLP sepsis was induced as described previously (32, 33). In brief, mice (14- to 16-week-old with equal number of each gender) were anesthetized by intraperitoneal administration of ketamine (100 mg/kg body weight) and xylazine (8 mg/kg). After a midline laparotomy, the cecum was ligated at about 1 cm from the end and then subjected to a double “through and through” perforation with an 18-gauge needle. Sham-operated mice underwent the same procedure except for ligation and puncture of the cecum. After the procedure, an analgesic (buprenorphine, 0.1 mg/kg, s.c.) was given immediately and every 12 h thereafter for 3 d. At these time points, fluid resuscitation (prewarmed 0.9% NaCl, 0.05 ml/g body weight) was given through subcutaneous injection to prevent fluid loss and help the recovery of body temperature. […] The survival of mice was observed every 6 h for 8 days and analyzed by the Log Rank test (using Prism GraphPad software (ver. 5.0), San Diego, CA, USA). […]
# Twenty-four hours after CLP, mouse blood was collected and added to an EDTA-rinsed microcentrifuge tube or citrate buffer. […] The kidney function markers BUN, creatinine and cystatin C and mouse liver function marker ALT were detected using corresponding kits according to the manufacturers' instructions. […]
# C57/BL6 mice = experiment: Reverse passive Arthus (rpA) reaction; format: in vivo, mouse; conditions: 5 μmol/kg, vs scrambled peptide
# Procedure: C57/BL6 mice were anesthetized by i.p. injection of a mixture of ketamine and xylazine (100 mg/kg and 16 mg/kg mouse weight), and the medial surface of the mouse back was shaved. Shaved mice received intradermal injections of rabbit anti-bovine serum albumin (BSA) antibody (6 μg/μL, MP Biomedicals, OH) in 25 μL of 0.9% NaCl, followed by i.v. injection of BSA (75 μg/g mouse weight) as well as the peptide inhibitors (5 μmol/kg mouse weight) in 100 μL sterile 0.9% NaCl. In addition, control sites received 25 μL of PBS in parallel. Four hours after injection, mice were euthanized and inflamed or control skin samples at each injection site were collected. The hemoglobin (Hb) contents in the skin samples were quantified by hemoglobin colorimetric assay kit (Cayman Chemical, Ann Arbor, MI).
# C57BL/6 mice [2] = experiment: Tail bleeding time; conditions: M3mP6 HLPN 10 μmol/kg; aspirin 4.3 mg/kg; clopidogrel 4 mg/kg; ticagrelor 3 mg/kg; cangrelor 30 μg/kg; MB2mP6
inflammation-induced hemorrhage (C57/BL6 mice),tail bleeding time vs normal control (C57BL/6 mice [2]),Molecule,"survival rate at 192 h (8 days), infusion immediately after CLP (C57BL/6 mice [1])"
–,–,"Myr-EFKKLE (Myristoyl-EFKKLE) [control peptide, scrambled control for MB2mP6 in micellar nanoparticle formulation (CLP study)]",26%
neither affected,neither affected,"CCCCCCCCCCCCCC(=O)N[C@@H](Cc1ccccc1)C(=O)N[C@@H](CCC(=O)O)C(=O)N[C@@H](CCCCN)C(=O)N[C@@H](CCC(=O)O)C(=O)N[C@@H](CCCCN)C(=O)N[C@@H](CC(C)C)C(=O)O [MB2mP6, Myr-FEKEKL] (Myristoyl-FEKEKL-OH; C-terminus assumed)",–
